Source: patent US20020032183A1, “Use of (di-substituted-phenyl)-pyrimidinyl-imidazole derivatives as JNK-inhibitors” (priority 2000, published 2002)

Tested on: Rat superior cervical ganglion neurons
Experiment: Sympathetic neuronal survival assay (no NGF exposure; GAP-43 ELISA and cell counts)
Assay type: cell-based
Conditions: for Survival, ELISA Data Mean / Survival, Cell Counts Mean: 48 hours; for Survival, ELISA Data Mean: GAP-43 ELISA; for Survival, Cell Counts Mean: immunostained neurons per well
Method: Activation of c-jun-N-terminal kinase (JNK) has been implicated in apoptosis in sympathetic neurons. An inhibitor of JNK, Example 2, was tested for neuroprotective effects in two models of sympathetic neuronal cell death.
In the first model, ganglia were dissociated and plated directly into culture plates in the presence of compound for 48 hours, then fixed and survival assayed using an ELISA for GAP-43. This model will hereafter be referred to as the ‘survival assay’.
Ganglia were enzymatically dissociated using 0.25% trypsin for 45 minutes. The trypsin was then inhibited using Dulbecco's MEM (DMEM) supplemented with 10% fetal bovine serum, and the cells mechanically triturated using a pipette tip to form a single cell suspension. Neurons in the suspension were counted using a haemocytometer, and plated at a density of 3000-5000 neurons per well in poly-D-lysine and laminin coated 96 well tissue culture clusters in DMEM supplemented with B27 serum substitute. Cultures were then incubated at 37° C./5% CO2. One hour following plating, cultures were either treated with NGF 25 ng/ml or with L-790,984 at a range of concentrations for the NGF deprivation and survival assays respectively.
Cultures for the NGF deprivation assay were returned to the incubator for 4 days. Following this, the medium was aspirated, plates washed once with DMEM/B27, and the cultures treated with Example 2 at concentrations ranging from 1 nM to 10 μM, together with an anti-NGF blocking antibody at 250 ng/ml. Cultures were then returned to the incubator for a further 72 hours prior to fixation and survival quantification. Cultures treated with Example 2 immediately for the survival assay were returned to the incubator for 48 hours; cultures were then fixed and survival quantified using the GAP-43 ELISA.
Cultures were fixed by the addition of an equal volume 4% paraformaldehyde to each well for 10 minutes; this was then aspirated, and replaced by a further volume of 4% paraformaldehyde for a further 20 minutes at room temperature. Plates were then washed three times with PBS/0.3% TX100, and non-specific binding sites blocked by the addition of 5% normal horse serum (NHS) in PBS/0.3% TX100. Plates were incubated at room temperature for one hour, then the blocking serum was aspirated without washing and replaced with primary antibody. The primary antibody used was a mouse monoclonal antibody raised against Growth Associated Protein 43 (Sigma), prepared at a dilution of 1:500 in PBS/0.3% TX100/5% NHS. Primary antibody was added to all sample wells, with four control wells returned to blocking serum to act as minus primary control. Plates were then refrigerated overnight at 4° C. The next day, plates were washed three times with PBS/0.3 TX100 and secondary antibody added. The secondary antibody used was peroxidase conjugated sheep anti-mouse IgG, and was added at a dilution of 1:1000 in PBS/0.3% TX100/5% NHS. Plates were incubated for 1 hour at room temperature, then washed three times with PBS/0.3% TX100, and K-Blue insoluble peroxidase substrate added for 30 minutes at room temperature. The optical density of the plates was then read at 650 nm, and the survival of neurons calculated and expressed as percentage of the control response.
Cell counts were performed on one sample plate for each model of sympathetic neuronal cell death, by the addition of a tertiary antibody to the plate, followed by avidin-biotin complex and an insoluble peroxidase substrate. Following quantification of optical density, plates were washed three times in PBS/0.3% TX100, and non-specific sites blocked using PBS/0.3% TX100/5% normal rabbit serum (“NRS”). Plates were incubated for one hour at room temperature, then the blocking serum was aspirated and replaced with biotinylated rabbit anti-sheep IgG at a dilution of 1:500 in PBS/0.3% TX10O/5% NRS. […]

`CCCn1c(C2CCN(C)CC2)nc(-c2ccc(Cl)c(Cl)c2)c1-c1ccnc(NC2CC2)n1` [Example 2, Cyclopropyl-{4-[5-(3,4-dichlorophenyl)-2-[(1-methyl)-piperidin]-4-yl-3-propyl-3H-imidazol-4-yl]-pyrimidin-2-yl}amine] was tested, and the “Survival, ELISA Data Mean” value (0.01 μM) was 112.10, the “Survival, Cell Counts Mean” value (0.01 μM) was 115.50 and the “Survival, ELISA Data Mean” value (0.03 μM) was 99.19. The “Survival, Cell Counts Mean” value (0.03 μM) was 127.25, the “Survival, ELISA Data Mean” value (0.1 μM) was 131.45 and the “Survival, Cell Counts Mean” value (0.1 μM) was 170.50. The “Survival, ELISA Data Mean” value (0.3 μM) was 209.68, the “Survival, Cell Counts Mean” value (0.3 μM) was 267.50 and the “Survival, ELISA Data Mean” value (1 μM) was 350.81. The “Survival, Cell Counts Mean” value (1 μM) was 363.00, the “Survival, ELISA Data Mean” value (3 μM) was 270.16 and the “Survival, Cell Counts Mean” value (3 μM) was 321.00. For the same molecule, the “Concentrations at which the survival response declines” value (data not shown) was “above 3 μM” and the “Concentrations at which the survival response was significant” value (quantified by ELISA) was no less than 300 nM.
